Results reported in patent US20050074879A1, “Antisense oligonucleotide modulation of STAT3 expression” (priority 2000, published 2005).
Oligonucleotides are written 5' to 3', each unit as a sugar letter and its base; * is a phosphorothioate linkage, no mark a phosphodiester; rarer units and linkages stand in square brackets, end groups in braces. Plain capitals give the bases only. e = 2'-O-(2-methoxyethyl) (MOE); [5mC] = 5-methylcytosine; d = 2'-deoxy (DNA)

Test system: Human STAT3 mRNA
Experiment: Inhibition of human STAT3 mRNA levels in A549 cells, 75 nM, real-time PCR (Table 13)
Format: cell-based
Details: 75 nM oligonucleotide with LIPOFECTIN, real-time PCR PPS 199, percent inhibition relative to untreated control cells, average of 2 experiments
Experimental: Oligonucleotide activity is assayed by quantitation of STAT3 mRNA levels by real-time PCR (RT-PCR) using the ABI PRISMS 7700 Sequence Detection System (PE-Applied Biosystems, Foster City, Calif.) according to manufacturer's instructions. This is a closed-tube, non-gel-based, fluorescence detection system which allows high-throughput quantitation of polymerase chain reaction (PCR) products in real-time. As opposed to standard PCR, in which amplification products are quantitated after the PCR is completed, products in RT-PCR are quantitated as they accumulate. This is accomplished by including in the PCR reaction an oligonucleotide probe that anneals specifically between the forward and reverse PCR primers, and contains two fluorescent dyes. A reporter dye (e.g., JOE or FAM, PE-Applied Biosystems, Foster City, Calif.) is attached to the 5′ end of the probe and a quencher dye (e.g., TAMRA, PE-Applied Biosystems, Foster City, Calif.) is attached to the 3′ end of the probe. When the probe and dyes are intact, reporter dye emission is quenched by the proximity of the 3′ quencher dye. During amplification, annealing of the probe to the target sequence creates a substrate that can be cleaved by the 5′-exonuclease activity of Taq polymerase. […] With each cycle, additional reporter dye molecules are cleaved from their respective probes, and the fluorescence intensity is monitored at regular (six-second) intervals by laser optics built into the ABI PRISM™ 7700 Sequence Detection System. In each assay, a series of parallel reactions containing serial dilutions of mRNA from untreated control samples generates a standard curve that is used to quantitate the percent inhibition after antisense oligonucleotide treatment of test samples.
RT-PCR reagents are obtained from PE-Applied Biosystems, Foster City, Calif. RT-PCR reactions are carried out by adding 25 l PCR cocktail (1× TAQMAN7 buffer A, 5.5 mM MgCl2, 300 µM each of DATP, dCTP and dGTP, 600 µM of dUTP, 100 nM each of forward primer, reverse primer, and probe, 20 U RNAse inhibitor, 1.25 units AMPLITAQ GOLD7, and 12.5 U MuLV reverse transcriptase) to 96 well plates containing 25 l poly(A) mRNA solution. The RT reaction is carried out by incubation for 30 minutes at 48° C. following a 10 minute incubation at 95° C. to activate the AMPLITAQ GOLD7, 40 cycles of a two-step PCR protocol are carried out: 95° C. for 15 seconds (denaturation) followed by 60° C. for 1.5 minutes (annealing/extension).
The compounds were analyzed for their effect on STAT3 mRNA levels in A549 cells. The human lung carcinoma cell line A549 was obtained from the American Type Culture Collection (ATCC) (Manassas, Va.). A549 cells were routinely cultured in DMEM basal media (Invitrogen Corporation, Carlsbad, Calif.) supplemented with 10% fetal calf serum (Invitrogen Corporation, Carlsbad, Calif.), 100 units/mL penicillin, and 100 ug/mL streptomycin (Invitrogen Corporation, Carlsbad, Calif.). Cells were routinely passaged by trypsinization and dilution when they reached 90% confluence.
When cells reached 65-75% confluency, they were treated with oligonucleotide. For cells grown in 96-well plates, wells were washed once with […] OPTI-MEM-1 reduced-serum medium (Invitrogen Corporation, Carlsbad, Calif.) and then treated with 130 µL of OPTI-MEM-1 containing […] LIPOFECTIN (Invitrogen Corporation, Carlsbad, Calif.) and 75 nM of the compounds in Table 13. Cells were treated and data were obtained in duplicate. Untreated cells served as controls. After 4-7 hours of treatment at 37° C., the medium was replaced with fresh medium. Cells were harvested 16-24 hours after oligonucleotide treatment. STAT3 mRNA levels in A549 cells were quantitated by real-time PCR as described by other methods herein.
Probes and primers to human STAT3 were designed to hybridize to a human STAT3 sequence, using published sequence information (incorporated herein as SEQ ID NO: 1). For STAT 3 the PCR primers were: • forward primer: […]

Substance	% Inhib (inhibition of human STAT 3 mRNA levels) [%]
337279 (antisense eG*eT*eT*eG*eA*dA*dA*dT*d[5mC]*dA*dA*dA*dG*dT*d[5mC]*eA*eT*e[5mC]*e[5mC]*eT) [compound 337279]	78
337280 (antisense eT*eT*eA*eT*eA*dG*dT*dT*dG*dA*dA*dA*dT*d[5mC]*dA*eA*eA*eG*eT*e[5mC]) [compound 337280]	45
337281 (antisense eG*eG*eG*eT*eT*dT*dT*dA*dT*dA*dG*dT*dT*dG*dA*eA*eA*eT*e[5mC]*eA) [compound 337281]	16
337282 (antisense e[5mC]*eT*eT*eG*eA*dG*dG*dG*dT*dT*dT*dT*dA*dT*dA*eG*eT*eT*eG*eA) [compound 337282]	58
337283 (antisense eT*eG*eA*e[5mC]*eT*d[5mC]*dT*dT*dG*dA*dG*dG*dG*dT*dT*eT*eT*eA*eT*eA) [compound 337283]	71
337285 (antisense e[5mC]*eA*eT*eG*eT*d[5mC]*dT*d[5mC]*d[5mC]*dT*dT*dG*dA*d[5mC]*dT*e[5mC]*eT*eT*eG*eA) [compound 337285]	78
337286 (antisense eA*eT*eT*e[5mC]*eA*dG*dA*dT*d[5mC]*dT*dT*dG*d[5mC]*dA*dT*eG*eT*e[5mC]*eT*e[5mC]) [compound 337286]	77
337287 (antisense eT*eG*eG*eT*eT*dG*dT*dT*dT*d[5mC]*d[5mC]*dA*dT*dT*d[5mC]*eA*eG*eA*eT*e[5mC]) [compound 337287]	82
337288 (antisense eT*eG*eG*eT*e[5mC]*dA*d[5mC]*dT*dG*dA*d[5mC]*dT*dG*dG*dT*eT*eG*eT*eT*eT) [compound 337288]	84
337289 (antisense eT*e[5mC]*e[5mC]*eA*eG*d[5mC]*dT*dG*d[5mC]*dT*dG*d[5mC]*dA*dT*d[5mC]*eT*eT*e[5mC]*eT*eG) [compound 337289]	83
337290 (antisense eG*eA*eG*e[5mC]*eA*dT*d[5mC]*dT*dG*dT*dT*d[5mC]*d[5mC]*dA*dG*e[5mC]*eT*eG*e[5mC]*eT) [compound 337290]	80
337291 (antisense e[5mC]*eT*eT*e[5mC]*eT*d[5mC]*d[5mC]*dG*d[5mC]*dA*dT*d[5mC]*dT*dG*dG*eT*e[5mC]*e[5mC]*eA*eG) [compound 337291]	66
337292 (antisense eT*eT*e[5mC]*eT*eG*d[5mC]*dA*d[5mC]*dG*dT*dA*d[5mC]*dT*d[5mC]*d[5mC]*eA*eT*e[5mC]*eG*e[5mC]) [compound 337292]	81
337294 (antisense e[5mC]*eT*e[5mC]*eT*eT*d[5mC]*d[5mC]*dA*dG*dT*d[5mC]*dA*dG*d[5mC]*d[5mC]*eA*eG*e[5mC]*eT*e[5mC]) [compound 337294]	75
337295 (antisense eT*eG*e[5mC]*e[5mC]*eG*d[5mC]*d[5mC]*dT*d[5mC]*dT*dT*d[5mC]*d[5mC]*dA*dG*eT*e[5mC]*eA*eG*e[5mC]) [compound 337295]	82
337296 (antisense e[5mC]*e[5mC]*eA*eG*eT*dT*dT*dT*d[5mC]*dT*dA*dG*d[5mC]*d[5mC]*dG*eA*eT*e[5mC]*eT*eA) [compound 337296]	80
337297 (antisense eA*e[5mC]*eG*eT*eT*dA*dT*d[5mC]*d[5mC]*dA*dG*dT*dT*dT*dT*e[5mC]*eT*eA*eG*e[5mC]) [compound 337297]	72
